These results are taken from EP0291751A2, “Pharmaceutical mixture preparation” (Wilhelm, Gerhard, Dr., priority 1987, dated 1988).

The test relates to Symptome des Heuschnupfens. Conditions: alone or together, without Hydroxiphenylalkanolamin.

Regarding `Cc1ncc(C[n+]2csc(CCO)c2C)c(N)n1` [Vitamin B₁], the “die Symptome des Heuschnupfens lindernde Wirkung” value is reported as “weder alleine noch gemeinsam miteinander”.
